# Experiments:
# intracellular iron pools = conditions: macrophages, hepatocytes and cardiomyocyte cell lines; cited from earlier work
# [1] = Perdue Pegboard test in Friedreich ataxia patients; format: in vivo, human; conditions: for Perdue pegboard (number of nails inserted with the two hands alone+together): after trial
# Description: (§1) The International Cooperative Ataxia Rating Score (ICARS) was used to assess the symptoms of ataxia before and after 1-5 months (Cano et al. International cooperative ataxia rating scale (ICARS): Appropriate for studies of Friedreich's ataxia? Mov Disord 2005; 20:1585-91). This scale has four subscales: posture and gait disturbance, kinetic functions, speech disorders and oculomotor disorders. Subscale scores are summed to give a total score ranging from 0 to 100. High scores indicated worse ataxia. The Perdue Pegboard test, which assesses speed of performance, delicate movements and manipulative dexterity, was included in the course of the study. This test assesses the ability of the participant to insert as many nails as possible into preset holes, linearly dug in a wooden board in a limited space of time (20 seconds with the two hands, separately and together). The tests were administered by the same investigator. Patients were monitored for neutropenia, agranulocytosis, musculoskeletal pains and zinc deficiency and had weekly blood counts, plasma iron, serum ferritin and transferrin concentration measurements, as well as assessments of renal and liver function.
# [2] = serum deferiprone time-concentration profile (HPLC) in the 52-week monkey study; format: in vivo, cynomolgus monkeys; conditions: monkeys, 75 mg/kg twice daily oral
# Description: (§2) Groups of 4 male and 4 female monkeys (2 to 3 years old) were dosed by nasogastric intubation at (0.5% w/v aqueous carboxymethylcellulose vehicle) 75 mg/kg deferiprone twice daily (bid), with 6-8 hours between doses, for at least 364 days.
# (§3) Clinical signs, body weights and food intake were assessed at frequent intervals. Ophthalmological and cardiovascular examinations were carried out in Weeks 17, 30, 43, 56 and 60. Hematology, coagulation, clinical chemistry and urine parameters were measured at baseline and in Weeks 8, 16, 30, 41, 56 and 60. Blood samples were taken on the first day of dosing, and in Weeks 17 and 56 for assessment of the serum deferiprone time-concentration profile. A full necropsy was performed on each animal, selected organs weighed, and histopathological examination of abnormalities and selected tissues conducted.
# Deferiprone was detectable (HPLC) from 0.5 h after dosing, and for up to 7 h.
# [3] = International Cooperative Ataxia Rating Score (ICARS), phase I-II open trial in Friedreich ataxia patients; format: in vivo, human; conditions: for ICARS oculomotor disorder (/6) / ICARS posture and gait disturbance: gait speed / ICARS posture and gait disturbance: spread feet / ICARS speech disorder (/8) / ICARS posture and gait disturbance: standing eyes open / ICARS posture and gait disturbance: walking / ICARS kinetic function (/29) / ICARS posture and gait disturbance 7 items (/34): after trial
# Description: Ten adolescents (four males, six females aged 14 to 23 yrs) with a diagnosis of Friedreich ataxia, confirmed by detection of a trinucleotide-repeat expansion in the first intron of the frataxin gene, were studied. Patients received deferiprone (Ferriprox™, Apotex Inc., Toronto, Canada) orally, in two doses for 1-5 months. Three patients were included, sequentially, for a minimum period of two months at each dose. Patient enrollment was staggered by two-weeks to enable monitoring of response. In the absence of toxicity, and with evidence of efficacy in any of the first 3 patients, a second group of 3 patients would be included at the same dose for a total duration of 6 months. If there was an absence of both efficacy and toxicity, the second group of three patients would be administered a higher dose. If toxicity developed, the current dose would be suspended and the trial resumed with the next group of patients at a lower dose. The patients were on idebenone (10 mg/kg/day, in three doses) for at least two years prior to inclusion and were kept on the drug at the same dose for the duration of the trial. MRI examinations were done at inclusion and at 1, 2, 4 and 6 months. The protocol was promoted by Assistance Publique-Hopitaux de Paris and approved by the local ethical committee and registered at the National Health Authority (AFSSAPS) and at the International Protocol Registration System (www.clinicaltrials.gov). A written informed consent was obtained from patients and parents.
# as §1
# [4] = 52-week twice daily oral toxicity study in non-iron-loaded cynomolgus monkeys; format: in vivo
# Description: As part of a larger study on the potential toxicity of iron chelators, we evaluated the toxicity of deferiprone in normal monkeys receiving 150 mg/kg/day (75 mg/kg twice daily) for 1 year.
# To determine the toxicity of deferiprone in non-iron-loaded cynomolgus monkeys following twice daily oral (gavage) administration for 52 consecutive weeks, and to evaluate the regression of any toxic effect during a 4-week treatment-free period.
# as §2, §3
# [5] = patient eight, DFP 20 mg/kg, 3 mth, prior to trial 4
# [6] = patient five, DFP 20 mg/kg, 5 mth, prior to trial 3
# [7] = patient one, DFP 20 mg/kg, 4 mth, prior to trial 2
# [8] = patient one, DFP 20 mg/kg, 4 mth, prior to trial 3
# [9] = patient seven, DFP 20 mg/kg, 2 mth, prior to trial 2
# [10] = patient seven, DFP 20 mg/kg, 2 mth, prior to trial 3
# [11] = patient six, DFP 20 mg/kg, 2 mth, prior to trial 3
# [12] = patient three, DFP 30 mg/kg, 1 mth, prior to trial 2
# [13] = patient two, DFP 30 mg/kg, 1 mth, prior to trial 0
compound,measurement,setting,value
CC(=O)N(O)CCCCCNC(=O)CCC(=O)N(O)CCCCCNC(=O)CCC(=O)N(O)CCCCCN [desferrioxamine],access to intracellular iron pools and chelation in cells,intracellular iron pools,slow
"Cc1c(O)c(=O)ccn1C [deferiprone, 3-hydroxy-1,2-dimethylpyridin-4-one]",speed of performances and dexterity (Perdue Pegboard),"[1]; 30 mg/kg/day group, before and 1-2 months after onset of the trial",an improvement of speed of performances and dexterity
same,Perdue pegboard (number of nails inserted with the two hands alone+together),"[1]; patient seven, DFP 20 mg/kg, 2 mth, prior to trial 37",29
same,Perdue pegboard (number of nails inserted with the two hands alone+together),"[1]; patient six, DFP 20 mg/kg, 2 mth, prior to trial 37",44
same,Perdue pegboard (number of nails inserted with the two hands alone+together),"[1]; patient two, DFP 30 mg/kg, 1 mth, prior to trial 52",39
same,peak concentration relative to thalassemia patients on 25 mg/kg three times daily,[2],about three times
same,change of ICARS scores,"[3]; 20 mg/kg/day, short period of the trial",mild changes of the ICARS scores
same,ICARS oculomotor disorder (/6),"[3]; patient eight, DFP 20 mg/kg, 3 mth, prior to trial 3",2
same,ICARS posture and gait disturbance: gait speed,[3]; [5],4
same,ICARS posture and gait disturbance: spread feet,[3]; [5],4
same,ICARS speech disorder (/8),[3]; [5],4
same,ICARS posture and gait disturbance: standing eyes open,"[3]; patient eight, DFP 20 mg/kg, 3 mth, prior to trial 6",6
same,ICARS posture and gait disturbance: walking,"[3]; patient eight, DFP 20 mg/kg, 3 mth, prior to trial 7",7
same,ICARS kinetic function (/29),"[3]; patient eight, DFP 20 mg/kg, 3 mth, prior to trial 21",21
same,ICARS posture and gait disturbance 7 items (/34),"[3]; patient eight, DFP 20 mg/kg, 3 mth, prior to trial 33",32
same,ICARS speech disorder (/8),"[3]; patient five, DFP 20 mg/kg, 5 mth, prior to trial 1",0
same,ICARS oculomotor disorder (/6),"[3]; patient five, DFP 20 mg/kg, 5 mth, prior to trial 2",2
same,ICARS posture and gait disturbance: gait speed,[3]; [6],3
same,ICARS posture and gait disturbance: spread feet,[3]; [6],2
same,ICARS posture and gait disturbance: standing eyes open,"[3]; patient five, DFP 20 mg/kg, 5 mth, prior to trial 4",4
same,ICARS posture and gait disturbance: walking,"[3]; patient five, DFP 20 mg/kg, 5 mth, prior to trial 7",7
same,ICARS kinetic function (/29),"[3]; patient five, DFP 20 mg/kg, 5 mth, prior to trial 8",7
same,ICARS posture and gait disturbance 7 items (/34),"[3]; patient five, DFP 20 mg/kg, 5 mth, prior to trial 28",27
same,ICARS posture and gait disturbance: gait speed,"[3]; patient one, DFP 20 mg/kg, 4 mth, prior to trial 1",1
same,ICARS oculomotor disorder (/6),[3]; [7],2
same,ICARS posture and gait disturbance: standing eyes open,[3]; [7],1
same,ICARS speech disorder (/8),[3]; [7],2
same,ICARS posture and gait disturbance: spread feet,[3]; [8],3
same,ICARS posture and gait disturbance: walking,[3]; [8],2
same,ICARS kinetic function (/29),"[3]; patient one, DFP 20 mg/kg, 4 mth, prior to trial 7",7
same,ICARS posture and gait disturbance 7 items (/34),"[3]; patient one, DFP 20 mg/kg, 4 mth, prior to trial 12",9
same,ICARS oculomotor disorder (/6),"[3]; patient seven, DFP 20 mg/kg, 2 mth, prior to trial 0",0
same,ICARS posture and gait disturbance: gait speed,"[3]; patient seven, DFP 20 mg/kg, 2 mth, prior to trial 1",1
same,ICARS posture and gait disturbance: spread feet,[3]; [9],2
same,ICARS speech disorder (/8),[3]; [9],2
same,ICARS posture and gait disturbance: standing eyes open,[3]; [10],1
same,ICARS posture and gait disturbance: walking,[3]; [10],3
same,ICARS kinetic function (/29),"[3]; patient seven, DFP 20 mg/kg, 2 mth, prior to trial 13",12
same,ICARS posture and gait disturbance 7 items (/34),"[3]; patient seven, DFP 20 mg/kg, 2 mth, prior to trial 16",13
same,ICARS oculomotor disorder (/6),"[3]; patient six, DFP 20 mg/kg, 2 mth, prior to trial 0",0
same,ICARS posture and gait disturbance: gait speed,"[3]; patient six, DFP 20 mg/kg, 2 mth, prior to trial 2",2
same,ICARS posture and gait disturbance: spread feet,[3]; [11],3
same,ICARS speech disorder (/8),[3]; [11],2
same,ICARS posture and gait disturbance: standing eyes open,"[3]; patient six, DFP 20 mg/kg, 2 mth, prior to trial 5",4
same,ICARS posture and gait disturbance: walking,"[3]; patient six, DFP 20 mg/kg, 2 mth, prior to trial 7",7
same,ICARS kinetic function (/29),"[3]; patient six, DFP 20 mg/kg, 2 mth, prior to trial 11",11
same,ICARS posture and gait disturbance 7 items (/34),"[3]; patient six, DFP 20 mg/kg, 2 mth, prior to trial 17",16
same,ICARS posture and gait disturbance: spread feet,"[3]; patient three, DFP 30 mg/kg, 1 mth, prior to trial 1",0
same,ICARS oculomotor disorder (/6),[3]; [12],2
same,ICARS posture and gait disturbance: gait speed,[3]; [12],2
same,ICARS posture and gait disturbance: standing eyes open,[3]; [12],1
same,ICARS posture and gait disturbance: walking,[3]; [12],2
same,ICARS speech disorder (/8),[3]; [12],2
same,ICARS kinetic function (/29),"[3]; patient three, DFP 30 mg/kg, 1 mth, prior to trial 8",8
same,ICARS posture and gait disturbance 7 items (/34),"[3]; patient three, DFP 30 mg/kg, 1 mth, prior to trial 11",8
same,ICARS oculomotor disorder (/6),[3]; [13],0
same,ICARS speech disorder (/8),[3]; [13],0
same,ICARS posture and gait disturbance: gait speed,"[3]; patient two, DFP 30 mg/kg, 1 mth, prior to trial 1",1
same,ICARS posture and gait disturbance: spread feet,"[3]; patient two, DFP 30 mg/kg, 1 mth, prior to trial 2",2
same,ICARS posture and gait disturbance: standing eyes open,"[3]; patient two, DFP 30 mg/kg, 1 mth, prior to trial 3",2
same,ICARS posture and gait disturbance: walking,"[3]; patient two, DFP 30 mg/kg, 1 mth, prior to trial 7",7
same,ICARS kinetic function (/29),"[3]; patient two, DFP 30 mg/kg, 1 mth, prior to trial 9",9
same,ICARS posture and gait disturbance 7 items (/34),"[3]; patient two, DFP 30 mg/kg, 1 mth, prior to trial 20",17
same,"deferiprone-related effects on body weight, food intake, ophthalmology, cardiac conduction, blood pressure, heart rate, hematology or urine composition","[4]; 75 mg/kg twice daily, 52 weeks",no deferiprone-related effects
same,macroscopic findings at necropsy,"[4]; 75 mg/kg twice daily, 52 weeks",No macroscopic findings related to deferiprone were found
same,microscopic findings (histopathology),"[4]; 75 mg/kg twice daily, 52 weeks",No microscopic findings in non-iron-loaded monkeys could be attributed to treatment with deferiprone
same,overall adverse effect,"[4]; oral, 75 mg/kg twice daily for 52 weeks",without significant adverse effect
same,access to intracellular iron pools and chelation in cells,intracellular iron pools,readily enter most cells and efficiently reach the major intracellular sites of iron accumulation
